“And” between values parts separate entries of the source, which are not always exact repeats. Equal entries are not always repeated.
Legend:
[1] = test system: phosphorylated eIF2α in differentiated cells; test: Phospho-eIF2α immunoblot, differentiated cells; format: cell-based, human; settings: 20 μM PluriSIn #1 or 100 nm A939572
Description: For immunoblotting, 10% polyacrylamide gel was used for protein separation and detection. The gel was transferred to a nitrocellulose membrane and antibody hybridization and chemiluminescence were performed according to standard procedures. The primary antibodies in this analysis were rabbit anti-phosphorylated-eIF2a (1:250, Cell Signaling Technology), rabbit anti caspase-3 (1:1,000, Cell Signaling Technology), mouse anti β-catenin (1:10,000, BD Biosciences) and mouse anti-α-tubulin (1:50,000, Sigma-Aldrich). Horseradish peroxidase-conjugated anti-rabbit and anti-mouse secondary antibodies were obtained from Jackson Immunoresearch Laboratories.
To further study the significance of UPR, XBP1 mRNA splicing and eIF2α phosphorylation, hallmarks of UPR, were further examined. Human ES cells and ES-derived differentiated cells were treated with PluriSIn #1 for 12 hours, and expression of the spliced isoform sXBP1 was determined by quantitative PCR and by immunoblotting, as described in the Materials and Methods section. Gene expression change conferred by dithiothreitol ([…]) was used as a positive control.

[2] = test system: mouse embryos (inner cell mass); test: In-vitro embryonic development experiments; format: cell-based; settings: for proportion of high quality blastocysts: compound alone; for embryos developing into good quality (category A/B) blastocysts: compound alone (20 μM PluriSIn #1 or 100 nm A939572); for embryos developing into good quality blastocysts with oleic acid / proportion of high quality blastocysts with oleic acid: compound with 100 μM oleic acid
Description: Superovulation was induced in female mice (CB6F1/OLAHSD and ICR:HSD(CD-1)), by injection of gonadotropins: intraperitoneal injection of 5 IU PMSG (pregnant mare's serum gonadotropin) at 1:00 P.M. was followed by an intraperitoneal injection of 5 IU hCG (human chorionic gonadotropin) 47 hours later, in accordance with the procedures described by Najy et al. [Manipulating the mouse embryo: a laboratory manual, 3rd Edn., Cold Spring Harbor Laboratory Press (2003)].
Females were mated with stud males immediately after the second injection, and plugging was evident the next morning. Pregnant female mice were sacrificed at approximately 36 hours p.c. (post coitum), and two-cell embryos were collected in accordance with the procedures described by Najy et al. [Manipulating the mouse embryo: a laboratory manual, 3rd Edn., Cold Spring Harbor Laboratory Press (2003)]. The abdominal cavity was opened, and the oviduct was cut and transferred to a Petri dish containing M2 medium at room temperature. The oviduct was flushed with M2 medium, and embryos were picked up using a pipette and washed in M2 medium to rinse off debris. Embryos were then transferred to microdrops of M16 medium. A 35 mm culture dish (Falcon BD) containing drops of 40 μl M16 medium, covered with mineral oil, was prepared the day before, and incubated overnight at a temperature of 37° C. under 5% CO2. Embryos were then transferred to these microdrops following their collection, and incubated at a temperature of 37° C. under 5% CO2. The development of the embryos was examined twice a day using light microscopy imaging. At the morula stage (approximately 3.5 days p.c.), embryos were transferred either to microdrops of 40 μl M16 medium with 20 μM PluriSIn #1 (isonicotinic acid N′-phenylhydrazide) in 0.2% DMSO, or to control microdrops with 0.2% DMSO. Other control embryos were left at the original microdrops to control for possible effects of the transfer itself. At approximately 4 days p.c. and 4.5 days p.c., the embryos were examined using light microscopy imaging, and blastocysts were graded as described by Cortes et al. [Stem Cells and Development 17:255-267 (2008)].
As described in the Materials and Methods section, a series of independent experiments were performed with two strains of mice, in which two-cell embryos were collected from the oviducts of pregnant mice at approximately 1.5 days post coitum, and these embryos were then let to develop in vitro. The embryos reached the morula stage at approximately 3.5 days post coitum, and were then transferred either to drops with 20 μM PluriSIn #1 (17 embryos in total), drops with 20 μM PluriSIn #1 and 100 μM oleic acid (7 embryos in total), or to control drops with 0.2% DMSO (8 embryos in total), while other control embryos were left to develop without transfer at all (10 embryos in total). Using light microscopy imaging, the development of the embryos was followed until they became mature blastocysts (at approximately 4.5 days post coitum, after which all embryos disintegrated in culture). The blastocysts were then classified into three distinct categories: (A) good quality mouse blastocysts with large and distinct ICM; (B) mouse blastocysts with distinct, but smaller, ICM; and (C) bad quality mouse blastocysts with indistinguishable ICM, as described by Cortes et al. [Stem Cells and Development 17:255-267 (2008)].
The above experiments with mouse embryos were then repeated using the SCD1 inhibitor A939572 instead of PluriSIn #1, and compared with the results obtained with PluriSIn #1, in order to confirm that the effects of PluriSIn #1 are associated with inhibition of SCD1 activity.

[3] = test system: undifferentiated CSES2-SO2/3 embryonic stem cells; test: Fluorescence microscopy imaging of undifferentiated CSES2-SO2/3 cells; format: cell-based, human; settings: for effect on undifferentiated cells: 24 hours of exposure
Description: (§1) High content imaging of CSES2-SO2/3 fluorescent cells (mCherry+ or EGFP+) was performed in black clear-bottom 384-well assay plates (Falcon BD), using the Opera high-content screen imaging platform (PerkinElmer). Otherwise, light and fluorescence imaging of all cells was performed in 24-well, 6-well or 10 cm CELLSTAR® plates (Greiner Bio-One), using an Olympus CellR imaging station. Light imaging of developing mouse embryos was performed in 35 mm culture dishes (Falcon BD), using an Olympus IX70 microscope.
(§2) CSES2-SO2/3 is a genetically-labeled cell line that expresses mCherry under the promoter of the pluripotency hallmark gene OCT-4, and GFP under the promoter of the early endodermal marker SOX17. Therefore, these cells are red while undifferentiated, and become green upon their differentiation into the endodermal lineage [Kopper & Benvenisty, Stem Cell Research 8:335-345 (2011)]. Green early endodermal progenitor cells were generated from the red undifferentiated cells, using an 8-day differentiation protocol as described by Duan et al. [Stem Cells 28:674-686 (2010)].
(§3) In order to further verify the selectivity of the PluriSIns, and rule out any potential assay-related interference, undifferentiated and differentiated CSES2-SO2/3 cells were subjected to microscopy imaging after 24 hours of exposure to PluriSIns.

[4] = test system: CSES2-SO2/3-derived differentiated cells; test: Fluorescence microscopy imaging of differentiated CSES2-SO2/3 cells; format: cell-based, human; settings: 24 hours of exposure
Description: as §1, §2, §3

Row | Structure (SMILES) | levels of phosphorylated eIF2α, differentiated cells [1] | proportion of high quality blastocysts [2] | embryos developing into good quality (category A/B) blastocysts [2] | embryos developing into good quality blastocysts with oleic acid [2] | proportion of high quality blastocysts with oleic acid [2] | effect on undifferentiated cells [3] | effect on undifferentiated cells in a mixture of differentiated and undifferentiated cells ([3]; mixture of CSES2-SO2/3 ES and derived differentiated cells) | effect on differentiated cells [4] | embryos developing into blastocysts with no distinguished ICM (category C) ([2]; 20 μM) | embryos stuck at the morula stage ([2]; 20 μM)
1 | CNC(=O)c1cccc(NC(=O)N2CCC(Oc3ccccc3Cl)CC2)c1 [A939572, 4-(2-chlorophenoxy)-N-(3-(methylcarbamoyl)-phenyl)piperidine-1-carboxamide, reference compound] | did not increase levels | 56% | 5 of 9 | 5 of 7 | 71% |  |  |  |  | 
2 | O=C(NNc1ccccc1)c1ccncc1 [PluriSIn #1, isonicotinic acid N′-phenylhydrazide] | did not increase levels | 41% | 7 of 17 and 7/17 | 5 of 7 | 71% | eliminated undifferentiated cells | also eliminated undifferentiated cells | without exhibiting any detectable effect | 6 of 17 and 6/17 | 4 of 17 and 4/17
3 | Cc1ccc(NNC(=O)C(O)(c2ccccc2)c2cccs2)cc1 (centres unmarked) [PluriSIn #6, 2-hydroxy-2-(thiophen-2-yl)-2-phenylacetic acid 4-methyl-N′-phenylhydrazide] |  |  |  |  |  | eliminated the red undifferentiated cells |  | without exhibiting any detectable effect |  | 

From US20180153830A1, “SELECTIVE INHIBITORS OF UNDIFFERENTIATED CELLS” (Yissum Research Development Company of the Hebrew …, priority 2012, published 2018)
